Measured values taken from US20240254095A1, “NMDA Receptor Antagonist and Use Thereof” (priority 2021, published 2024).
Where a name gives a salt, the structure may show the parent alone.

The molecules below were run against T1, human NMDA receptors GluN1 and GluN2A subunits (GluN2A-containing NMDAR) (Homo sapiens, UniProt Q05586+Q12879) (assay: cell-based). Details: not given.
T1 construct: expressed in transfected cells; host or cells: HEK293 cells, transient liposome transfection of TRE-GluN1-GluN2A, tTA and pCAG-EGFP
T1 sequence (Q12879 23-1464, other chains not shown): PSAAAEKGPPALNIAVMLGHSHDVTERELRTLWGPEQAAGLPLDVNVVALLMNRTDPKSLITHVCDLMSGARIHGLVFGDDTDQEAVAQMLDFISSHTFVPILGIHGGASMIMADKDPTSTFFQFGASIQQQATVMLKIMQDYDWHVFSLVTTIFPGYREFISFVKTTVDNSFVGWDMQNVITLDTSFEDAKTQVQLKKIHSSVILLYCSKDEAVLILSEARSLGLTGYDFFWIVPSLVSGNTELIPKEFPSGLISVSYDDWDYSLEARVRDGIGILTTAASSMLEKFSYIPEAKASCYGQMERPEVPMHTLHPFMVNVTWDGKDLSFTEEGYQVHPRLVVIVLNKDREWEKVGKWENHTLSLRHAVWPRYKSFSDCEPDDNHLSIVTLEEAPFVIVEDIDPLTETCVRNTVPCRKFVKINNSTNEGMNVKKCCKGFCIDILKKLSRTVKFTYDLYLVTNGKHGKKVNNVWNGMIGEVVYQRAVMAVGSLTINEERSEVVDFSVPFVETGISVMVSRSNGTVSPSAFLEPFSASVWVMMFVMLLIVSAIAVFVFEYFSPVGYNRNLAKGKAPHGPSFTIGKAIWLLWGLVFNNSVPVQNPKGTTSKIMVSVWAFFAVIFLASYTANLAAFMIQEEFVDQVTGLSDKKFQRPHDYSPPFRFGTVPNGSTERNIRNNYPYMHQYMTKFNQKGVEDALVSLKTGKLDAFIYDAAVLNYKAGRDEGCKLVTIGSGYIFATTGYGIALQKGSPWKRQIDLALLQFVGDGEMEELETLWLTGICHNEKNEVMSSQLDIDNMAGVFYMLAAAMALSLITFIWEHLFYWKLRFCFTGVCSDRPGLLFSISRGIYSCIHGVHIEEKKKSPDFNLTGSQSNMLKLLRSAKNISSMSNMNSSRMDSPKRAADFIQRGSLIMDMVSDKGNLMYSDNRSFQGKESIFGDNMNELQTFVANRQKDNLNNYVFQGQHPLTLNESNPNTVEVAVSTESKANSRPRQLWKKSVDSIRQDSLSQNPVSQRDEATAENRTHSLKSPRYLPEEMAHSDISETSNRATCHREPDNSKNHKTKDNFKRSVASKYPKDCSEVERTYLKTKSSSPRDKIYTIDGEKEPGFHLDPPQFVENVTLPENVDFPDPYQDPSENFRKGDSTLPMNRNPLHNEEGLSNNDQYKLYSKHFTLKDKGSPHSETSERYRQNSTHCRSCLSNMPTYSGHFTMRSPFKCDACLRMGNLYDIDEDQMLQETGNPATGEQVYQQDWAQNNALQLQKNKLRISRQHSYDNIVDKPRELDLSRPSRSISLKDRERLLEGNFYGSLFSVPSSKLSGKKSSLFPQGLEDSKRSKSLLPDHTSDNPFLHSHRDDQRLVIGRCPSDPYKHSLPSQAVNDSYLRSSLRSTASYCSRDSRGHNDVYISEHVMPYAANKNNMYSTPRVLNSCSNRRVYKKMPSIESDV
Procedure: On the day before transfection, HEK293 cells were seeded in a 24-well plate with a 10 mm glass sheet, which was coated with polylysine in advance to increase the adhesion capacity of the cells. The plate was added with DMEM medium containing 10% FBS and incubated at 37° C., in 5% CO2 incubator. When the cell fusion reached 60%-70% after 18-24 hours, the plasmid cDNAs containing TRE-GluN1-GluN2A of human GluN1 and GluN2A, tTA, and pCAG-EGFP were transfected into HEK293 by liposome transfection (TRE-GluN1-GluN2A:tTA:pCAG-EGFP is 0.2 μg:0.2 μg:0.02 μg). Before transfection, anew DMEM medium was changed and added with 1 μg/mL Dox (doxycycline) to induce stable expression in the medium, and added with 100 μM D-APV and 10 mM MgCl2 to avoid cell excitatory toxicity caused by NMDAR overexpression. Cells with green fluorescence were selected for electrophysiological recording after transfection for about 24 h.
A glass plate seeded with HEK293 cells was placed in a recording bath and perfused with the extracellular fluid at a rate of 4 mL/min (NaCl 140 mM, KCl 2.8 mM, HEPES 10 mM, CaCl2 1 mM, glycine 0.1 mM, pH 7.2). The channels of the ALA-VC^3 eight-channel pressure perfusion system were filled with extracellular fluid for washing, extracellular fluid containing glutamic acid (100 μM), and extracellular fluid containing glutamic acid and compound to be tested, respectively, with a drop rate of about 1 drop/sec and 10 μL/drop. HEK293 cells with moderate green fluorescence intensity and good adhesion were selected under a fluorescence microscope for recording. The microglass tube of the perfusion system was placed about ten cells away from the cells to be recorded, and the drug was sprayed to the cell surface under the pressure of air (0.02 MPa). The glass electrode was prepared by drawing with a microelectrode drawing instrument with a resistance of 4-6 MΩ and filled with electrode liquid (CsCl 125 mM, HEPES 10 mM, EGTA 11 mM). The microelectrode manipulator was used to slowly push the glass electrode towards the cells. The electrode was attached to the cell membranes and applied with negative pressure, so that a high-resistance seal of more than 1 GΩ was formed between the electrode tip and the cell membrane, and then negative pressure was given to suck through the cell membrane to form a whole-cell recording mode. After the formation of whole-cell recording mode, the cell membrane potential was clamped at −70 mV. The extracellular fluid containing 100 μM glutamic acid, the extracellular fluid containing 100 μM glutamic acid and the compound to be tested, and the extracellular fluid were sprayed to the cell membrane surface sequentially through the perfusion system for 10 s, 20 s, and 10 s to record the NMDA receptor-mediated current and evaluate the inhibitory effect of the compound on GluN2A-containing NMDAR. The experimental process was controlled by pCLAMP 10.6, and the Digidata 1440A digital-to-analog converter was used to complete the generation of stimulus signal and the acquisition of feedback signal.
The ordinate in the figure is the normalized current ratio, which represents the ratio of the current mediated by NMDAR after administration of ketamine and the compound at a concentration of 10 μM to the current mediated by NMDAR before administration. […] Ketamine was used as a positive control.
The inhibitory percentages of the compound according to the present disclosure on NMDAR-mediated current=[…]/NMDAR mediated-current before administration*100%.
Work on CC1(C)CNC2(c3ccccc3)CCCCC2OC1.Cl (stereo not shown) [Compound 20, 3,3-dimethyl-5a-phenyldecahydrobenzo[b][1,4]olanzapine hydrochloride] yielded a current inhibitory percentages of 64.86%.

Same assay, conditions: HEK293, read-out: current inhibitory percentages
In the case of CC1(C)CCC2OCCNC2(c2ccccc2)C1 (stereo not shown) [Compound 31, 6,6-dimethyl-4a-phenyloctahydro-2H-benzo[b][1,4]oxazine hydrochloride], the inhibition at 10 µM is reported as 71.6%.

Same assay, conditions: NMDAR-mediated current, HEK293 cells expressing human GluN1/GluN2A, 100 μM glutamic acid, clamped at −70 mV; compound 10 μM; read-out: current inhibitory percentages
c1ccc(C23CCCCC2OCCN3)cc1 (stereo not shown) [Compound 1, 4a-phenyloctahydro-2H-benzo[b][1,4]oxazine hydrochloride] was tested, and the inhibition at 10 µM was 115%.
With COc1ccccc1C12CCCCC1OCCN2 (stereo not shown) [Compound 2, 4a-(2-methoxyphenyl)octahydro-2H-benzo[b][1,4]oxazine hydrochloride] the inhibition at 10 µM was 56%.
Molecule Fc1cccc(C23CCCCC2OCCN3)c1 (stereo not shown) [Compound 3, 4a-(3-fluorophenyl)octahydro-2H-benzo[b][1,4]oxazine hydrochloride] has an inhibition at 10 µM of 21.2%.
In the case of Fc1ccc(C23CCCCC2OCCN3)cc1 (stereo not shown) [Compound 4, 4a-(4-fluorophenyl)octahydro-2H-benzo[b][1,4]oxazine formate], the inhibition at 10 µM is reported as 83.7%.
Work on Fc1cccc(C23CCCCC2OCCN3)c1F (stereo not shown) [Compound 5, 4a-(2,3-difluorophenyl)octahydro-2H-benzo[b][1,4]oxazine formate] yielded an inhibition at 10 µM of 54.5%.
In the case of CC1CCC2OCCNC2(c2ccccc2)C1 (stereo not shown) [Compound 7, 6-methyl-4a-phenyloctahydro-2H-benzo[b][1,4]oxazine formate], the inhibition at 10 µM is reported as 86.4%.
CCC1CCC2OCCNC2(c2ccccc2)C1 (stereo not shown) [Compound 8, 6-ethyl-4a-phenyloctahydro-2H-benzo[b][1,4]oxazine formate] gave an inhibition at 10 µM of 28.9%.
Work on Cc1cccc(C23CCCCC2OCCN3)c1 (stereo not shown) [Compound 10, 4a-(3-methylphenyl)octahydro-2H-benzo[b][1,4]oxazine formate] yielded an inhibition at 10 µM of 98.3%.
Molecule Cc1ccccc1C12CCCCC1OCCN2 (stereo not shown) [Compound 12, 4a-(2-methylphenyl)octahydro-2H-benzo[b][1,4]oxazine formate] has an inhibition at 10 µM of 33.7%.
In the case of Cc1ccc(C23CCCCC2OCCN3)cc1 (stereo not shown) [Compound 14, 4a-(4-methylphenyl)octahydro-2H-benzo[b][1,4]oxazine formate], the inhibition at 10 µM is reported as 45.2%.
CC1CCCC2(c3ccccc3)NCCOC12 (stereo not shown) [Compound 16, 8-methyl-4a-phenyloctahydro-2H-benzo[b][1,4]oxazine formate] was tested, and the inhibition at 10 µM was 107%.
CC1CCCC2OCCNC12c1ccccc1 (stereo not shown) [Compound 17, 5-methyl-4a-phenyloctahydro-2H-benzo[b][1,4]oxazine formate] gave an inhibition at 10 µM of 86.6%.
With CC1CCC2(c3ccccc3)NCCOC2C1 (stereo not shown) [Compound 18, 7-methyl-4a-phenyloctahydro-2H-benzo[b][1,4]oxazine formate] the inhibition at 10 µM was 84.4%.
With CN1CCOC2CCCCC21c1ccccc1 (stereo not shown) [Compound 19, 4-methyl-4a-phenyloctahydro-2H-benzo[b][1,4]oxazine hydrochloride] the inhibition at 10 µM was 17.8%.
COc1cccc(C23CCCCC2OCCN3)c1 (stereo not shown) [Compound 21, 4a-(3-methoxyphenyl)octahydro-2H-benzo[b][1,4]oxazine hydrochloride] was tested, and the inhibition at 10 µM was 71.5%.
For FC(F)(F)Oc1cccc(C23CCCCC2OCCN3)c1 (stereo not shown) [Compound 22, 4a-(3-(trifluoromethoxy)phenyl)octahydro-2H-benzo[b][1,4]oxazine hydrochloride], the inhibition at 10 µM was 45.8%.
Work on FC(F)(F)c1ccc(C23CCCCC2OCCN3)cc1 (stereo not shown) [Compound 23, 4a-(4-(trifluoromethyl)phenyl)octahydro-2H-benzo[b][1,4]oxazine hydrochloride] yielded an inhibition at 10 µM of 9.25%.
Cc1cccc(C)c1C12CCCCC1OCCN2 (stereo not shown) [Compound 24, 4a-(2,6-dimethylphenyl)octahydro-2H-benzo[b][1,4]oxazine hydrochloride] gave an inhibition at 10 µM of 73.7%.
With CC(C)(C)c1ccc(C23CCCCC2OCCN3)cc1 (stereo not shown) [Compound 25, 4a-(4-(tertbutyl)phenyl)octahydro-2H-benzo[b][1,4]oxazine hydrochloride] the inhibition at 10 µM was 11.2%.
Molecule Clc1cccc(C23CCCCC2OCCN3)c1Cl (stereo not shown) [Compound 26, 4a-(2,3-dichlorophenyl)octahydro-2H-benzo[b][1,4]oxazine hydrochloride] has an inhibition at 10 µM of 92%.
Molecule CC(C)c1ccccc1C12CCCCC1OCCN2 (stereo not shown) [Compound 27, 4a-(2-isopropylphenyl)octahydro-2H-benzo[b][1,4]oxazine hydrochloride] has an inhibition at 10 µM of 85.6%.
Work on Cc1ccc(C)c(C23CCCCC2OCCN3)c1 (stereo not shown) [Compound 28, 4a-(2,5-dimethylphenyl)octahydro-2H-benzo[b][1,4]oxazine hydrochloride] yielded an inhibition at 10 µM of 87.8%.
With Fc1cccc(C23CCCCC2OCCN3)c1Cl (stereo not shown) [Compound 29, 4a-(2-chloro-3-fluorophenyl)octahydro-2H-benzo[b][1,4]oxazine hydrochloride] the inhibition at 10 µM was 85.7%.
In the case of Fc1ccc(C23CCCCC2OCCN3)cc1F (stereo not shown) [Compound 30, 4a-(3,4-difluorophenyl)octahydro-2H-benzo[b][1,4]oxazine hydrochloride], the inhibition at 10 µM is reported as 86.6%.
With Fc1ccc(Cl)c(C23CCCCC2OCCN3)c1 (stereo not shown) [Compound 32, 4a-(2-chloro-5-fluorophenyl)octahydro-2H-benzo[b][1,4]oxazine hydrochloride] the inhibition at 10 µM was 102%.
Molecule CCOc1cccc(C23CCCCC2OCCN3)c1 (stereo not shown) [Compound 33, 4a-(3-ethoxyphenyl)octahydro-2H-benzo[b][1,4]oxazine hydrochloride] has an inhibition at 10 µM of 76.4%.
In the case of COc1ccc(C23CCCCC2OCCN3)c(Cl)c1 (stereo not shown) [Compound 34, 4a-(2-chloro-4-methoxyphenyl)octahydro-2H-benzo[b][1,4]oxazine hydrochloride], the inhibition at 10 µM is reported as 48.6%.
Fc1cccc(Cl)c1C12CCCCC1OCCN2 (stereo not shown) [Compound 36, 4a-(2-chloro-6-fluorophenyl)octahydro-2H-benzo[b][1,4]oxazine hydrochloride] gave an inhibition at 10 µM of 42.5%.
In the case of Cc1cscc1[C@]12CCCC[C@H]1OCCN2 [Compound 40, (4aR,8aR)-4a-(4-methyl-3-thiophenyl)octahydro-2H-benzo[b][1,4]oxazine hydrochloride], the inhibition at 10 µM is reported as 89.3%.
